US11028084B2, “Selective inhibitors of gentotoxic steress-induced IKK/NF-κB pathways” (Max-Delbrück-Centrum für Molekulare Medizin in der …, priority 2016, dated 2021)

Columns and labels:
[1] = target: T1, PARP1 (Mus musculus, UniProt P11103); details: MEF, after etoposide administration (Stilmann et al.; 2009); cited from earlier work
T1 construct: MEF cells were pre-treated with the indicated substances, irradiated and cell lysates were used for poly(ADP)-ribose probing; endogenous in cells; host or cells: MEF (mouse embryonic fibroblasts)
T1 sequence (P11103 whole entry): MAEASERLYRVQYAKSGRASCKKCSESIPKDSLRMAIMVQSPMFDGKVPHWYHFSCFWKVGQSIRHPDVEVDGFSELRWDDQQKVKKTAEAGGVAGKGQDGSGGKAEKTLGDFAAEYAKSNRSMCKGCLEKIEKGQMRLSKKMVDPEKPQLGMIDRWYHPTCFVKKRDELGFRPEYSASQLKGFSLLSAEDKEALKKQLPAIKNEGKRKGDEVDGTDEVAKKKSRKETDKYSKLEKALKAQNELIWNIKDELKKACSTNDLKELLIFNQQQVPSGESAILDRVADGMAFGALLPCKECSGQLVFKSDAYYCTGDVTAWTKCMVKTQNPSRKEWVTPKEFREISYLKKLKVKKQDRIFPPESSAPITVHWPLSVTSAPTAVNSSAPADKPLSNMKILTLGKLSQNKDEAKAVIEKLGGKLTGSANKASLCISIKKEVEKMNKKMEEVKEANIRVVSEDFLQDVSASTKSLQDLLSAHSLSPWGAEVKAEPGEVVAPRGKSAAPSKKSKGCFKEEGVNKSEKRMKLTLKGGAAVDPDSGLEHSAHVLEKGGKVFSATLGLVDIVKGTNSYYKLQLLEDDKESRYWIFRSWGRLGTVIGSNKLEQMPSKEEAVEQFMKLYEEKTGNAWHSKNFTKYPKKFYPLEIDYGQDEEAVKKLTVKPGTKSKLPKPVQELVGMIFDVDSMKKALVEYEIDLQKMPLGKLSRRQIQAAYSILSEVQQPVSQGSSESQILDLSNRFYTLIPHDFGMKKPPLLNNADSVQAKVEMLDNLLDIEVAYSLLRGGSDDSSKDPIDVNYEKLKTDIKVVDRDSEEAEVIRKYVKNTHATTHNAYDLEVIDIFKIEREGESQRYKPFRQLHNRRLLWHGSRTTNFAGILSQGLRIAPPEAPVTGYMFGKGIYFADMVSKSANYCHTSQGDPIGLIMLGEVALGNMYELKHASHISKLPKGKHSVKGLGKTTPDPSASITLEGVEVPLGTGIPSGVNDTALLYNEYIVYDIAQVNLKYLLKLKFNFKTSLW

[2] = test system: genotoxic stress-activated NF-κB signaling; assay: TAK1 and p65 S536 phosphorylation after γ-irradiation, WB, HepG2 cells; type: cell-based, human; details: HepG2, 90 min after irradiation, PARP inhibitors
Experimental: FIG. 6: (A) U2OS cells were pre-treated with DMSO or MW01 and irradiated. Stimulation of cell with IL-1β served as a positive control for IκBα and p65 phosphorylation. Cells were lysed at indicated time points and used for WB analyses. (B,C) Similar experimental setup as in (A). (D) Experiment as in (A-C), but with other time points analysed and performed with HepG2 cells. PARP1 and LDH serve as loading controls.
(§1) FIG. 9: HepG2 cells were pre-incubated with DMSO, MW01 (5 μM) or the ATM inhibitor Ku55933 (10 μM) and irradiated. After 60 min cells were harvested and processed. Immunochemical staining of Western blotting membranes was done using indicated antibodies.
(§2) FIG. 14: (A) U2OS cells were pre-treated with different concentrations of olaparib prior to co-treatment with etoposide. Whole cell lysis was performed after 90 min and cleared lysates were used for WB with indicated antibodies. (B) U2OS cells were pre-treated with DMSO, olaparib or the ATM inhibitor Ku55933 and co-treated with etoposide. Cells were harvested after 45 min and subjected to SDS-PAGE/WB. Membranes were stained with the indicated antibodies. The experiment of (B) was performed simultaneously to the experiments of (A) and (E) to control functionality of olaparib in inhibiting PAR chain formation. (C) Densitometrical analyses of (A) and two further independent experiments done as shown in (A). (D) U2OS cells were pre-treated with the substances as indicated prior to irradiation. After 90 min mRNA was isolated, transcribed into cDNA and was used for expression analyses of the indicated genes using quantitative real-time PCR (qRT-PCR). (E) HepG2 cells were pre-treated with the PARP inhibitors olaparib, 3-AB and EB-47 prior to γ-irradiation. Cells were harvested after 15 and 90 min and subjected to SDS-PAGE/WB. Membranes were stained with the indicated antibodies. Error bars equal SEM.

[3] = target: T1, PARP1; assay: PARP1 enzymatic activity, PAR chain formation after γ-irradiation, MEF cells; type: cell-based
Source text: FIG. 10: (A) MEF cells were pre-treated with the indicated substances, irradiated and cell lysates were used for poly(ADP)-ribose probing using a specific antibody. (B) Experiment performed as described for (A), but using U2OS cells.

[4] = target: T2, PARP1 (Homo sapiens, UniProt P09874); assay: PAR chain formation after γ-irradiation, HepG2 cells; type: cell-based; parameters: endogenous in cells; details: HepG2, 15 min after irradiation
T2 sequence (P09874 whole entry): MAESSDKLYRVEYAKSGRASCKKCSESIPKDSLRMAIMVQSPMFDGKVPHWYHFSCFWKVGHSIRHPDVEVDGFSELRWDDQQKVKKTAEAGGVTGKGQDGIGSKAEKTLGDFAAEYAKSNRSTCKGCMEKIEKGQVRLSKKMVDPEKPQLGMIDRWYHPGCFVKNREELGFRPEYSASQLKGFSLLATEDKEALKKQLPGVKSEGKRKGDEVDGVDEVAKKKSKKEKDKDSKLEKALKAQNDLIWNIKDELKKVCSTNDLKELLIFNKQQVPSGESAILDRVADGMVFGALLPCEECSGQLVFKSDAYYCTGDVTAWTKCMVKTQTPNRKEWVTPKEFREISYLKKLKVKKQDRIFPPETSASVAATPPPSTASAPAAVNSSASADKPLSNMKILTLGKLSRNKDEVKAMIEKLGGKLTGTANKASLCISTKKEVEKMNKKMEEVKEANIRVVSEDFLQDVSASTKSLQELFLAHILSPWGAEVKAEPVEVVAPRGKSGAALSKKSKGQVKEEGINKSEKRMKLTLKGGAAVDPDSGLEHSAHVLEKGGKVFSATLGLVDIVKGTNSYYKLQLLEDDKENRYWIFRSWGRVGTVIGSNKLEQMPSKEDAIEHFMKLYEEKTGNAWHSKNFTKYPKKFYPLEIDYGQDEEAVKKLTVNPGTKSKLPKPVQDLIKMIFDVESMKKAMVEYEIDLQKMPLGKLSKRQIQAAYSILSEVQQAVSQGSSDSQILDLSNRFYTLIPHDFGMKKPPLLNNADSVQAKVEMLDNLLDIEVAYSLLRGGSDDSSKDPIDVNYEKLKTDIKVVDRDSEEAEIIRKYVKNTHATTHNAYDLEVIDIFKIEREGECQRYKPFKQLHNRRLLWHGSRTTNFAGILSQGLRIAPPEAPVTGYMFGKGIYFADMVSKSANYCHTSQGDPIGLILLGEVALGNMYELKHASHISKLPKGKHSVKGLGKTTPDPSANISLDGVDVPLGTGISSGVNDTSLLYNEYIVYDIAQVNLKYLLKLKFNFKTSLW
Experimental: as §2

[5] = test system: NF-κB DNA binding activity; details: HEK293; data not shown, personal communication; cited from earlier work
[6] = target: T2, PARP1; details: HepG2, after γ-irradiation (Stilmann et al.; 2009); cited from earlier work
[7] = target: T3, ATM (Homo sapiens, UniProt Q13315); assay: Enzymatic activity of ATM in γ-irradiated HepG2 cells, WB of ATM and substrate phosphorylation; type: cell-based; details: HepG2, γ-irradiation, 60 min; MW01 5 μM, Ku55933 10 μM
T3 construct: endogenous in cells; host or cells: HepG2
T3 sequence (Q13315 whole entry): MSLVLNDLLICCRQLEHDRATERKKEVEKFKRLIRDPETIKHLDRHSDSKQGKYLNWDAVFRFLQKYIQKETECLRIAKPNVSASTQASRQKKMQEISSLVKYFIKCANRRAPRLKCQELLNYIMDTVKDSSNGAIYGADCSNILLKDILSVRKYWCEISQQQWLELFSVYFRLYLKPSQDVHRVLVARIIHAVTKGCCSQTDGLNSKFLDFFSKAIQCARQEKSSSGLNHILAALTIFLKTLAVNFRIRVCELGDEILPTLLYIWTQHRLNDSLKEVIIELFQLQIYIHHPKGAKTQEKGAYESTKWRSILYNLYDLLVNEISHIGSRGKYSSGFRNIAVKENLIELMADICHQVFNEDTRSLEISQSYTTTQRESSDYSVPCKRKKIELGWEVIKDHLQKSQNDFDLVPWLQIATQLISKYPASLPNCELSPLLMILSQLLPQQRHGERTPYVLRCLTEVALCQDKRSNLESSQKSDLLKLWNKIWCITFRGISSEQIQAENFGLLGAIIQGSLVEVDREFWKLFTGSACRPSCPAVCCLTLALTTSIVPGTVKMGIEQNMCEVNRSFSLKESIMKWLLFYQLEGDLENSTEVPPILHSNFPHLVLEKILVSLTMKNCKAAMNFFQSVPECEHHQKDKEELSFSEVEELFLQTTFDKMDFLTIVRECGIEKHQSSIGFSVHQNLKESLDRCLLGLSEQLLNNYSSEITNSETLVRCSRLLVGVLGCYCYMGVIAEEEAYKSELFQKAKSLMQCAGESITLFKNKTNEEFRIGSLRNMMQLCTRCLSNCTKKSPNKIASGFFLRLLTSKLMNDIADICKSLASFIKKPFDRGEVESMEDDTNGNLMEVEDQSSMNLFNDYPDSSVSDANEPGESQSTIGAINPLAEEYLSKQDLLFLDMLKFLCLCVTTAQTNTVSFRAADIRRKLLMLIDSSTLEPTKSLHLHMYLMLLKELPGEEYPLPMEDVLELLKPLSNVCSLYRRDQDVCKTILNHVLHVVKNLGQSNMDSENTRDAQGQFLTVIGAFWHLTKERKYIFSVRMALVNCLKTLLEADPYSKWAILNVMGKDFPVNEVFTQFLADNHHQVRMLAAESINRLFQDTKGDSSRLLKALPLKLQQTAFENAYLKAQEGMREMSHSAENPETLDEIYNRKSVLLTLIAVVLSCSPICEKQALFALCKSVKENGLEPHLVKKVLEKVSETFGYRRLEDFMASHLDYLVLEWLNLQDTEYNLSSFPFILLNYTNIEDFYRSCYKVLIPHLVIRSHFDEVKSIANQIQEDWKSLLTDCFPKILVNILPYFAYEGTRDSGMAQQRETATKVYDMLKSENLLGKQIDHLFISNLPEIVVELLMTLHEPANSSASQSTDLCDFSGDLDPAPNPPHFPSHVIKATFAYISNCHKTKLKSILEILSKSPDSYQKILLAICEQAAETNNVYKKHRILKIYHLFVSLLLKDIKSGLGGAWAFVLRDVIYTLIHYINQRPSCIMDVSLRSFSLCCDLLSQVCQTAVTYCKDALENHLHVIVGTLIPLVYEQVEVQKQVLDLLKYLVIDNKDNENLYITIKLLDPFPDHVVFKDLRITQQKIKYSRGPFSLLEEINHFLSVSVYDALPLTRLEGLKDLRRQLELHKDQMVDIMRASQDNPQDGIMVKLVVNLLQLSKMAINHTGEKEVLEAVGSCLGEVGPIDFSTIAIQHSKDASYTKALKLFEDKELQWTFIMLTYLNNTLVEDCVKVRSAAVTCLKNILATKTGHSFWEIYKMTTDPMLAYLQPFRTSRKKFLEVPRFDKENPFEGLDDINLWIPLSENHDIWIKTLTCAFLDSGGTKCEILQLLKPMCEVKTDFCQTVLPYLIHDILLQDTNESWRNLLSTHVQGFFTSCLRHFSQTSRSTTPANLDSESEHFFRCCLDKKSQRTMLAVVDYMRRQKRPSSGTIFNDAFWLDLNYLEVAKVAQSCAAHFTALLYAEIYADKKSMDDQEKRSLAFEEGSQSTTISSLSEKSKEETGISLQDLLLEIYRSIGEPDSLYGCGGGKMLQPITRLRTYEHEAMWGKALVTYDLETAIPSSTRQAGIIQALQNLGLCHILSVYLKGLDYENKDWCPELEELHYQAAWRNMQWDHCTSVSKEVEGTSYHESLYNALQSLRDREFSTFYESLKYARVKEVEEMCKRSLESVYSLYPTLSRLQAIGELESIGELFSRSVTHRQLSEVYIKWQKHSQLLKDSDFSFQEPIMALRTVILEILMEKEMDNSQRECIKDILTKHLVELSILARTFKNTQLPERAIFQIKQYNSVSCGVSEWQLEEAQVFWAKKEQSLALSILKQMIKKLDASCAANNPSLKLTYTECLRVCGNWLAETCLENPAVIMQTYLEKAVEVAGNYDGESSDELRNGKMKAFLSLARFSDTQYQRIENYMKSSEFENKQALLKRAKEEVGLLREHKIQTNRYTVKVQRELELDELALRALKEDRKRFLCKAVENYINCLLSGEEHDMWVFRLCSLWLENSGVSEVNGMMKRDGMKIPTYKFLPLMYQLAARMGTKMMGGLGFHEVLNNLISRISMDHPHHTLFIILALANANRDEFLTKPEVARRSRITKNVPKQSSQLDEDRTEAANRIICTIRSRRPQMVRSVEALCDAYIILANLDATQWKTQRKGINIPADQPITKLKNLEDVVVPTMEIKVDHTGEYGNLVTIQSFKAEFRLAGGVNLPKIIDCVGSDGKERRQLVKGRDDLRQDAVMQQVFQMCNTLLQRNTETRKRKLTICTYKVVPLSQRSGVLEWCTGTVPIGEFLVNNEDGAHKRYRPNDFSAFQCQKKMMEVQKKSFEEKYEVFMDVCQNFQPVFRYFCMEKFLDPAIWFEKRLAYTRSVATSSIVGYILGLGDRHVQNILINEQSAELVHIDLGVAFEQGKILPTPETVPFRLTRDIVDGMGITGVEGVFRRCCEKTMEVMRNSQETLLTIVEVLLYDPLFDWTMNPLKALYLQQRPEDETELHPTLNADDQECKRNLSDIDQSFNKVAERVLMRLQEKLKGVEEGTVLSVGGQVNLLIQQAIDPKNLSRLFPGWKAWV
Experimental: as §1

[8] = test system: NF-κB target genes NFKBIA, TNFAIP3, CXCL8; assay: qRT-PCR of NF-κB target genes after irradiation, U2OS cells; type: cell-based, human; details: 90 min after irradiation
Experimental: as §2
To quantitate specific mRNA (messenger RNA) species in samples RNA was isolated, RNA concentration was measured and mRNA was transcribed into cDNA. The amount of mRNA transcripts of certain genes within a sample was quantified by employing gene specific primers and using a C-1000 Thermal cycler (Biorad). The expression of genes of interest was normalised against two or three reference genes (HRPT1, RPL_13a and B2M) using the CFX manager software. The fold induction of mRNA was calculated over untreated sample levels by the ΔΔ-Ct method.

[9] = test system: genotoxic stress-induced phosphorylation of p65 at S536; assay: Structure-activity-relationship: p-p65 S536/p65 densitometry after etoposide, U2OS cells; type: cell-based, human; details: 10 μM, 2 h prior to etoposide, normalised to DMSO/etoposide
Experimental: FIG. 13: (A) U2OS cells were pre-treated with DMSO, MW01 or its derivatives MW01A1-MW01C5 at concentrations of 10 μM for 2 h prior to etoposide treatment. After incubation with etoposide cells were harvested, lysed and subjected to SDS-PAGE/WB. Phospho-[…] p65 signal intensities as well as p65 signal intensities were detected using a CCD camera and band intensities were used for densitometrical analyses. DMSO and etoposide treated control was set to 1. Four independent experiments were performed and statistical outliers were identified and eliminated using Grubb's test. […] (B) NFkB/293/GFP-luc cells were pre-treated with DMSO, MW01 or its derivatives MW01D01-MW01D18 at concentrations of 10 μM for 1.5 h prior to etoposide treatment. After incubation for 4.5 hours NF-κB-dependent luciferase expression was measured by detection of chemoluminescence. DMSO and etoposide treated control was set to 1. Twelve independent experiments were performed.
Different derivatives of MW01 were obtained (FIG. 12 A) and tested for their ability to inhibit genotoxic stress-induced phosphorylation of p65 at S536. Densitometry of western blot bands was used to quantify signal intensities of the p65 S536 phosphorylation and total p65 amount. The signal intensities of the p65 S536 phosphorylation were normalised to the signal intensities of total p65 and the quotients were normalised to DMSO/etoposide and compared with MW01/etoposide co-treated samples (FIG. 13). […] Compared to MW01, these compounds are derivatives in which the hydroxyl group was exchanged with a small substitute either fluoride, chloride or a methyl group, respectively. Furthermore, MW01C3 and MW01C4 differed in the substitution of the aromatic ring system V (FIG. 12 B) regarding the two methoxy groups that are missing.

[10] = test system: p65 S536 phosphorylation; assay: p65 S536 phosphorylation after γ-IR or etoposide, SDS-PAGE/WB, U2OS cells; type: cell-based, human
Experimental: FIG. 3: (A) U2OS cells were pre-treated with increasing concentrations of MW01 in duplicates in a 384 well plate. Then, cells were treated with etoposide, fixed and subjected to IF of p65. Spatial measurement of p65 cytosolic and nuclear localisation was used for calculation of p65 translocation rates. (B) U2OS cells were pre-treated with DMSO, MW01 and irradiated with γ-IR. After 90 min cells were lysed and subjected to SDS-PAGE/WB and EMSA. (C) Cells were pre-treated with different concentrations of MW01 as indicated, treated with γ-IR (C) or etoposide (D) and subjected to WB or EMSA, respectively. LDH in (C) represents the loading control.
as §2, with “Cells were harvested after 15 and 90 min and subjected to SDS-PAGE/WB. Membranes were stained with the indicated antibodies. Error bars equal SEM.” left out
After transfer of proteins on PVDF membranes unspecific binding of antibodies was blocked by incubation of membranes in 5% skim milk powder in TBST buffer (or 3% BSA in TBST for phosphorylation-specific antibodies) for 1 h at RT. […] After three times of washing with TBST and once with PBS for 5 min, chemiluminescent photon emission was detected using a CCD camera system (Fusion Solo). […]

Nc1ncnc2c1ncn2[C@@H]1O[C@H](C(=O)N2CCN(CC(=O)Nc3cccc4c3CNC4=O)CC2)[C@@H](O)[C@H]1O [EB-47]
PAR chain formation and NF-κB binding activity [1]: abrogated PAR chain formation and NF-κB binding activity | phosphorylation of p65 at S536 [2]: detected | PAR chain formation / PARP1 enzymatic activity [3]: inhibition of PAR chain formation | PAR chain formation [4]: abolished

NC(=O)c1cccc(N)c1 [Example 3-AB]
PAR chain formation and NF-κB binding activity [1]: abrogated PAR chain formation and NF-κB binding activity | phosphorylation of p65 at S536 [2]: decreased phosphorylation | NF-κB DNA binding activity [5]: did not abolish | PAR chain formation / PARP1 enzymatic activity [3]: inhibition of PAR chain formation | PAR chain formation [4]: abolished | PAR chain formation and NF-κB DNA binding activity [6]: inhibited PAR chain formation and NF-κB DNA binding activity

O=c1cc(-c2cccc3c2Sc2ccccc2S3)oc(N2CCOCC2)c1 [KU55933, reference compound]
ATM auto-phosphorylation and phosphorylation of the ATM substrates p53 and KAP1 [7]: inhibited | phosphorylation state of p53bp1 [7]: inhibited | NFKBIA, TNFAIP3 and CXCL8 mRNA induction upon irradiation [8]: complete inhibition

COc1ccc2c3ccnc4c5ccc(OC)c(OC)c5c(=O)n(c2c1)c34 [MW01C1, 6,7,11-trimethoxy-8H-benzo[c]indolo[3,2,1-ij][1,5]naphthyridin-8-one]
p-p65/p65 ratio (inhibition of NF-κB activation following etoposide co-treatment) [9]: highly potent derivative

COc1ccc2c(c1OC)c(=O)n1c3ccc(F)cc3c3ccnc2c31 [MW01C2, 12-fluoro-6,7-dimethoxy-8H-benzo[c]indolo[3,2,1-ij][1,5]naphthyridin-8-one]
p-p65/p65 ratio (inhibition of NF-κB activation following etoposide co-treatment) [9]: lowest p-p65/p65 ratios

Cc1ccc2c(c1)c1ccnc3c4ccccc4c(=O)n2c13 [MW01C3, 12-methyl-8H-benzo[c]indolo[3,2,1-ij][1,5]naphthyridin-8-one]
p-p65/p65 ratio (inhibition of NF-κB activation following etoposide co-treatment) [9]: lowest p-p65/p65 ratios

O=c1c2ccccc2c2nccc3c4cc(Cl)ccc4n1c32 [MW01C4, 12-chloro-8H-benzo[c]indolo[3,2,1-ij][1,5]naphthyridin-8-one]
p-p65/p65 ratio (inhibition of NF-κB activation following etoposide co-treatment) [9]: lowest p-p65/p65 ratios

O=C(c1cc(Cc2n[nH]c(=O)c3ccccc23)ccc1F)N1CCN(C(=O)C2CC2)CC1 [olaparib]
phosphorylation of p65 at S536 [2]: decreased phosphorylation | p65 S536 phosphorylation in comparison to DMSO/etoposide co-treated controls ([10]; 0.63 μM to 10.0 μM, 90 min after etoposide): No significant decrease | signal intensity ratio of S536 phosphorylated p65 and total p65 (densitometry, three experiments) ([10]; etoposide co-treatment): did not influence | NFKBIA, TNFAIP3 and CXCL8 mRNA induction upon irradiation [8]: did not change
